Activity calls are given as the source filed them. The rule behind the calls is not given here.
Tested on: CCRIS mutagenicity, Ames/micronucleus/aberration tests
Test: CCRIS mutagenicity studies
Conditions: Test System: AMES SALMONELLA TYPHIMURIUM
[1] = Strain/Indicator: TA98, Metabolic Activation: NONE, Method: STANDARD PLATE
[2] = Strain/Indicator: TA98, Metabolic Activation: RAT, LIVER, S-9, AROCLOR 1254, Method: STANDARD PLATE
[3] = Strain/Indicator: TA100, Metabolic Activation: NONE, Method: STANDARD PLATE
[4] = Strain/Indicator: TA100, Metabolic Activation: RAT, LIVER, S-9, AROCLOR 1254, Method: STANDARD PLATE
[5] = Strain/Indicator: TA98, Metabolic Activation: NONE, Method: PREINCUBATION
[6] = Strain/Indicator: TA100, Metabolic Activation: NONE, Method: PREINCUBATION

SMILES: Cc1c2ccccc2cc2ccccc12
- mutagenic call (Strain/Indicator: TA97, Metabolic Activation: NONE, Method: STANDARD PLATE): inactive; negative
- mutagenic call (Strain/Indicator: TA97, Metabolic Activation: RAT, LIVER, S-9, PCB, Method: STANDARD PLATE): active; positive
- mutagenic call [1]: inactive; negative
- mutagenic call [2]: active; positive
- mutagenic call (Strain/Indicator: TA98, Metabolic Activation: RAT, LIVER, S-9, PCB, Method: STANDARD PLATE): active; positive
- mutagenic call [3]: inactive; negative
- mutagenic call [4]: inactive; negative
- mutagenic call (Strain/Indicator: TA100, Metabolic Activation: RAT, LIVER, S-9, PCB, Method: STANDARD PLATE): active; positive

SMILES: Nc1cc2nc3ccccc3nc2cc1O
- mutagenic call (Strain/Indicator: TA98(1,8-DNP6), Metabolic Activation: NONE, Method: PREINCUBATION): inactive; negative
- mutagenic call (Strain/Indicator: TA98(1,8-DNP6), Metabolic Activation: S-9, Method: PREINCUBATION): inactive; negative
- mutagenic call [5]: inactive; negative
- mutagenic call [1]: active; positive
- mutagenic call [2]: active; positive
- mutagenic call (Strain/Indicator: TA98, Metabolic Activation: S-9, Method: PREINCUBATION): inactive; negative
- mutagenic call (Strain/Indicator: TA100(OAT-), Metabolic Activation: NONE, Method: PREINCUBATION): inactive; negative
- mutagenic call (Strain/Indicator: TA100(OAT-), Metabolic Activation: S-9, Method: PREINCUBATION): inactive; negative
- mutagenic call [6]: inactive; negative
- mutagenic call [3]: inactive; negative
- mutagenic call [4]: active; positive
- mutagenic call (Strain/Indicator: TA100, Metabolic Activation: S-9, Method: PREINCUBATION): inactive; negative
- mutagenic call (Strain/Indicator: TA1537, Metabolic Activation: NONE, Method: STANDARD PLATE): active; positive
- mutagenic call (Strain/Indicator: TA1537, Metabolic Activation: RAT, LIVER, S-9, AROCLOR 1254, Method: STANDARD PLATE): active; positive
- mutagenic call (Strain/Indicator: YG1024, Metabolic Activation: PLANT CELL-FREE EXTRACT, Method: PREINCUBATION): active; positive
- mutagenic call (Strain/Indicator: YG1024, Metabolic Activation: S-9, Method: PREINCUBATION): active; positive
- mutagenic call (Strain/Indicator: YG1029, Metabolic Activation: S-9, Method: PREINCUBATION): active; positive

SMILES: CCC(O)CN (configuration not stated)
- mutagenic call (Strain/Indicator: TA97, Metabolic Activation: HAMSTER, LIVER, S-9, AROCLOR 1254 (10 OR 30%), Method: PREINCUBATION): inactive; negative
- mutagenic call (Strain/Indicator: TA97, Metabolic Activation: NONE, Method: PREINCUBATION): inactive; negative
- mutagenic call (Strain/Indicator: TA97, Metabolic Activation: RAT, LIVER, S-9, AROCLOR 1254 (10 OR 30%), Method: PREINCUBATION): inactive; negative
- mutagenic call (Strain/Indicator: TA98, Metabolic Activation: HAMSTER, LIVER, S-9, AROCLOR 1254 (10 OR 30%), Method: PREINCUBATION): inactive; negative
- mutagenic call [5]: inactive; negative
- mutagenic call (Strain/Indicator: TA98, Metabolic Activation: RAT, LIVER, S-9, AROCLOR 1254 (10 OR 30%), Method: PREINCUBATION): inactive; negative
- mutagenic call (Strain/Indicator: TA100, Metabolic Activation: HAMSTER, LIVER, S-9, AROCLOR 1254 (10 OR 30%), Method: PREINCUBATION): inactive; negative
- mutagenic call [6]: inactive; negative
- mutagenic call (Strain/Indicator: TA100, Metabolic Activation: RAT, LIVER, S-9, AROCLOR 1254 (10 OR 30%), Method: PREINCUBATION): inactive; negative
- mutagenic call (Strain/Indicator: TA1535, Metabolic Activation: HAMSTER, LIVER, S-9, AROCLOR 1254 (10 OR 30%), Method: PREINCUBATION): inactive; negative
- mutagenic call (Strain/Indicator: TA1535, Metabolic Activation: NONE, Method: PREINCUBATION): inactive; negative
- mutagenic call (Strain/Indicator: TA1535, Metabolic Activation: RAT, LIVER, S-9, AROCLOR 1254 (10 OR 30%), Method: PREINCUBATION): inactive; negative

From PubChem BioAssay AID1259407 (Chemical Carcinogenesis Research Information System (CCRIS), 2018)
